Experimental data reported in the supplement of paper PMC10307832.

Columns and labels:
Experiment in all cases: relative viability (nuclei count vs DMSO), 5 days (fraction); higher = more cells survive
AZD5582 + Trametinib = compound: C[C@@H](C(=O)N[C@@H](C1CCCCC1)C(=O)N2CCC[C@H]2C(=O)N[C@@H]3[C@@H](CC4=CC=CC=C34)OCC#CC#CCO[C@@H]5CC6=CC=CC=C6[C@@H]5NC(=O)[C@@H]7CCCN7C(=O)[C@H](C8CCCCC8)NC(=O)[C@H](C)NC)NC [AZD5582] + CC(=O)Nc1cccc(-n2c(=O)n(C3CC3)c(=O)c3c(Nc4ccc(I)cc4F)n(C)c(=O)c(C)c32)c1 [Trametinib] (partner 0.02 µM)
Method in brief: (§1)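 Five library-drug doses in √10 steps were combined with a fixed anchor-drug dose, or a single drug was given alone, by pin tool to lung cancer cell lines in 1536-well plates the day after seeding. Nuclei were stained and counted after 5 days. Relative viability is the nuclei count in treated wells over that in vehicle wells, taken as the median of duplicate plates.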

AZD5582 + Phenformin = compound: C[C@@H](C(=O)N[C@@H](C1CCCCC1)C(=O)N2CCC[C@H]2C(=O)N[C@@H]3[C@@H](CC4=CC=CC=C34)OCC#CC#CCO[C@@H]5CC6=CC=CC=C6[C@@H]5NC(=O)[C@@H]7CCCN7C(=O)[C@H](C8CCCCC8)NC(=O)[C@H](C)NC)NC [AZD5582] + N=C(N)NC(=N)NCCc1ccccc1 [Phenformin] (partner 250 µM)
Method in brief: as §1

[1] = compound: Cn1nnc2c(C(N)=O)ncn2c1=O [Temozolomide] + CC(C)C[C@H](NC(=O)[C@H](Cc1ccccc1)NC(=O)c1cnccn1)B(O)O [Bortezomib] (partner 0.002 µM)
Method in brief: as §1

[2] = compound: Cn1nnc2c(C(N)=O)ncn2c1=O [Temozolomide] + O=C(CCCCCCC(=O)Nc1ccccc1)NO [Vorinostat] (partner 1 µM)
Method in brief: as §1

| Cell Line | relative viability (AZD5582 + Trametinib; first compound 0.001581 µM) | relative viability (AZD5582 + Trametinib; first compound 0.005 µM) | relative viability (AZD5582 + Trametinib; first compound 0.01581 µM) | relative viability (AZD5582 + Trametinib; first compound 0.05 µM) | relative viability (AZD5582 + Phenformin; first compound 0.001581 µM) | relative viability (AZD5582 + Phenformin; first compound 0.005 µM) | relative viability (AZD5582 + Phenformin; first compound 0.01581 µM) | relative viability (AZD5582 + Phenformin; first compound 0.05 µM) | relative viability ([1]; first compound 0.2 µM) | relative viability ([1]; first compound 0.6325 µM) | relative viability ([1]; first compound 2 µM) | relative viability ([1]; first compound 6.325 µM) | relative viability ([1]; first compound 20 µM) | relative viability ([2]; first compound 0.6325 µM) | relative viability ([2]; first compound 2 µM) | relative viability ([2]; first compound 6.325 µM) | relative viability ([2]; first compound 20 µM) | relative viability ([2]; first compound 0.2 µM) |
| --- | --- | --- | --- | --- | --- | --- | --- | --- | --- | --- | --- | --- | --- | --- | --- | --- | --- | --- |
| EKVX | 0.276 | 0.405 | 0.289 | 0.376 | 0.217 | 0.23 | 0.196 | 0.228 | 0.991 | 1.1 | 1.06 | 0.996 | 0.884 | 0.745 | 0.691 | 0.794 | 0.395 | – |
| EMC-BAC-2 | 0.757 | 0.841 | 0.737 | 0.797 | 0.405 | 0.508 | 0.418 | 0.335 | 0.977 | 1.13 | 1.02 | 1.01 | 1.04 | 0.628 | 0.454 | 0.398 | 0.437 | 0.831 |
| EPLC-272H | 0.15 | – | 0.292 | 0.0966 | 0.0525 | – | 0.233 | 0.0492 | 1.02 | 1.05 | 0.91 | 0.832 | 0.805 | 0.545 | 0.527 | 0.407 | 0.508 | 0.386 |
| H3255 | 0.58 | 0.667 | 0.557 | 0.524 | 0.392 | 0.326 | 0.34 | 0.353 | – | 0.755 | 0.849 | 0.824 | 0.213 | 0.793 | 0.77 | 0.535 | 0.23 | – |
| HARA | 0.464 | 0.719 | 0.747 | 0.976 | 0.415 | 0.501 | 0.493 | 0.403 | 1.26 | 1.16 | 1.24 | 1.14 | 1.05 | 0.514 | 0.511 | 0.573 | 0.521 | 0.575 |
| HCC-15 | 0.328 | 0.39 | 0.332 | 0.365 | 0.391 | 0.437 | 0.31 | 0.402 | 1.02 | 1.06 | 1.05 | 0.975 | 1.1 | 0.847 | 0.791 | 0.695 | 0.806 | 0.79 |
| HCC-44 | 0.883 | 0.967 | 1.02 | 0.878 | 0.169 | 0.149 | 0.105 | 0.145 | 0.938 | 0.855 | 0.869 | 0.827 | 0.988 | 1.09 | 1.02 | 1.16 | 1.06 | 1.15 |
| HCC-78 | 0.735 | 0.813 | 0.712 | 0.534 | 0.606 | 0.664 | 0.389 | 0.567 | – | 0.524 | 0.537 | 0.515 | 0.567 | 0.433 | 0.429 | – | 0.431 | 0.372 |
| HCC-366 | 0.304 | 0.339 | 0.413 | 0.458 | 0.575 | 0.564 | – | 0.708 | 1.07 | 1.07 | 1.1 | 1.08 | 1.06 | 0.349 | 0.307 | 0.315 | 0.351 | 0.443 |
